Assay results: patent US7026304B2, “2-alkylated-cyclodextrin derivatives: reversal agents for drug-induced neuromuscular block” (Akzo Nobel N.V., priority 2001, dated 2006)

Tested on: steady-state neuromuscular block induced by the muscle relaxant rocuronium bromide (Roc)
Assay: Reversal of neuromuscular blockade in anaesthetized guinea pigs in vivo
Design: species or system guinea pig
Protocol: Reversal of Neuromuscular Blockade in Anaesthetized Guinea Pigs in vivo Male Dunkin-Hartley guinea pigs (bodyweight: 600–900 g) were anaesthetized by i.p. administration of 10 mg/kg pentobarbitone and 1000 mg/kg urethane. After tracheotomy, the animals were artificially ventilated using a Harvard small animal ventilator. A catheter was placed into the carotid artery for continuous monitoring of arterial blood pressure and the taking of blood samples for blood gas analysis. Heart rate was derived from the blood pressure signal. The sciatic nerve was stimulated (rectangular pulses of 0.5 ms duration at 10 s (0.1 Hz) intervals at a supramaximal voltage, using a Grass S88 Stimulator) and the force of M. gastrocnemius contractions was measured using a Grass FT03 force-displacement transducer. Contractions, blood pressure and heart rate were recorded on a multichannel Grass 7D recorder. Catheters were placed in both jugular veins. One catheter was used for the continuous infusion of a neuromuscular blocking agent. […] The other catheter was used for administration of increasing doses of the reversal agent. During continuous infusion of the neuromuscular blocking agent, single doses of increasing concentration of reversal agent were given.

[1] = anaesthetized guinea pigs, rocuronium bromide-induced steady-state block
[2] = anaesthetized guinea pigs, rocuronium bromide-induced steady-state block, dose at which % max reversal was reached
[3] = anaesthetized male Dunkin-Hartley guinea pigs, rocuronium bromide infusion to steady-state block of 85–90%, reversal agent i.v. in increasing doses

Row | SMILES | % max reversal [1] | concentration at maximum reversal [2] | ED50, dose producing 50% reversal of steady-state neuromuscular block [3] | % max reversal (guinea pig, in vivo) | concentration at maximum reversal (guinea pig, in vivo) | ED50, dose producing 50% reversal of steady-state neuromuscular block (guinea pig, in vivo, iv)
1 | O=C([O-])c1ccc(CO[C@H]2[C@H]3O[C@H]4[C@H](O)[C@@H](OCc5ccc(C(=O)[O-])cc5)[C@@H](O[C@H]5[C@H](O)[C@@H](OCc6ccc(C(=O)[O-])cc6)[C@@H](O[C@H]6[C@H](O)[C@@H](OCc7ccc(C(=O)[O-])cc7)[C@@H](O[C@H]7[C@H](O)[C@@H](OCc8ccc(C(=O)[O-])cc8)[C@@H](O[C@H]8[C@H](O)[C@@H](OCc9ccc(C(=O)[O-])cc9)[C@@H](O[C@H]9[C@H](O)[C@@H](OCc%10ccc(C(=O)[O-])cc%10)[C@@H](O[C@H]%10[C@H](O)[C@@H](OCc%11ccc(C(=O)[O-])cc%11)[C@@H](O[C@@H]([C@@H]2O)[C@@H](CO)O3)O[C@@H]%10CO)O[C@@H]9CO)O[C@@H]8CO)O[C@@H]7CO)O[C@@H]6CO)O[C@@H]5CO)O[C@@H]4CO)cc1.[Na+].[Na+].[Na+].[Na+].[Na+].[Na+].[Na+].[Na+] [Example 3, Octakis per-2-O-(4-carboxybenzyl)-γ-cyclodextrin, Na salt] | 97% | (0.8) μmol · kg^−1 | 0.20 µmol/kg |  |  | 
2 | O=C([O-])c1ccccc1CO[C@H]1[C@H]2O[C@H]3[C@H](O)[C@@H](OCc4ccccc4C(=O)[O-])[C@@H](O[C@H]4[C@H](O)[C@@H](OCc5ccccc5C(=O)[O-])[C@@H](O[C@H]5[C@H](O)[C@@H](OCc6ccccc6C(=O)[O-])[C@@H](O[C@H]6[C@H](O)[C@@H](OCc7ccccc7C(=O)[O-])[C@@H](O[C@H]7[C@H](O)[C@@H](OCc8ccccc8C(=O)[O-])[C@@H](O[C@H]8[C@H](O)[C@@H](OCc9ccccc9C(=O)[O-])[C@@H](O[C@H]9[C@H](O)[C@@H](OCc%10ccccc%10C(=O)[O-])[C@@H](O[C@@H]([C@@H]1O)[C@@H](CO)O2)O[C@@H]9CO)O[C@@H]8CO)O[C@@H]7CO)O[C@@H]6CO)O[C@@H]5CO)O[C@@H]4CO)O[C@@H]3CO.[Na+].[Na+].[Na+].[Na+].[Na+].[Na+].[Na+].[Na+] [Example 4, Octakis per-2-O-(2-carboxybenzyl)-γ-cyclodextrin, Na salt] | 84% | (15) μmol · kg^−1 | 3.4 µmol/kg |  |  | 
3 | O=C([O-])c1ccc(CO[C@H]2[C@H]3O[C@H]4[C@H](O)[C@@H](O)[C@@H](O[C@H]5[C@H](O)[C@@H](O)[C@@H](O[C@H]6[C@H](O)[C@@H](O)[C@@H](O[C@H]7[C@H](O)[C@@H](O)[C@@H](O[C@H]8[C@H](O)[C@@H](O)[C@@H](O[C@H]9[C@H](O)[C@@H](O)[C@@H](O[C@H]%10[C@H](O)[C@@H](O)[C@@H](O[C@@H]([C@@H]2O)[C@@H](CO)O3)O[C@@H]%10CO)O[C@@H]9CO)O[C@@H]8CO)O[C@@H]7CO)O[C@@H]6CO)O[C@@H]5CO)O[C@@H]4CO)cc1.[Na+] [Example 5, Mono-2-O-(4-carboxybenzyl)-γ-cyclodextrin sodium salt] | 96% | (2.6) μmol · kg^−1 | 0.25 µmol/kg |  |  | 
4 | O=C([O-])CCSCCCO[C@H]1[C@H]2O[C@H]3[C@H](O)[C@@H](OCCCSCCC(=O)[O-])[C@@H](O[C@H]4[C@H](O)[C@@H](OCCCSCCC(=O)[O-])[C@@H](O[C@H]5[C@H](O)[C@@H](OCCCSCCC(=O)[O-])[C@@H](O[C@H]6[C@H](O)[C@@H](OCCCSCCC(=O)[O-])[C@@H](O[C@H]7[C@H](O)[C@@H](OCCCSCCC(=O)[O-])[C@@H](O[C@H]8[C@H](O)[C@@H](OCCCSCCC(=O)[O-])[C@@H](O[C@H]9[C@H](O)[C@@H](OCCCSCCC(=O)[O-])[C@@H](O[C@@H]([C@@H]1O)[C@@H](CO)O2)O[C@@H]9CO)O[C@@H]8CO)O[C@@H]7CO)O[C@@H]6CO)O[C@@H]5CO)O[C@@H]4CO)O[C@@H]3CO.[Na+].[Na+].[Na+].[Na+].[Na+].[Na+].[Na+].[Na+] [Example 6, Octakis per-2-O-(6-carboxy-4-thia-hexyl)-γ-cyclodextrin, Na salt] |  |  |  | 86% | (16) μmol · kg^−1 | 3.4 µmol/kg
5 | O=C([O-])CSCCCO[C@H]1[C@H]2O[C@H]3[C@H](O)[C@@H](OCCCSCC(=O)[O-])[C@@H](O[C@H]4[C@H](O)[C@@H](OCCCSCC(=O)[O-])[C@@H](O[C@H]5[C@H](O)[C@@H](OCCCSCC(=O)[O-])[C@@H](O[C@H]6[C@H](O)[C@@H](OCCCSCC(=O)[O-])[C@@H](O[C@H]7[C@H](O)[C@@H](OCCCSCC(=O)[O-])[C@@H](O[C@H]8[C@H](O)[C@@H](OCCCSCC(=O)[O-])[C@@H](O[C@H]9[C@H](O)[C@@H](OCCCSCC(=O)[O-])[C@@H](O[C@@H]([C@@H]1O)[C@@H](CO)O2)O[C@@H]9CO)O[C@@H]8CO)O[C@@H]7CO)O[C@@H]6CO)O[C@@H]5CO)O[C@@H]4CO)O[C@@H]3CO.[Na+].[Na+].[Na+].[Na+].[Na+].[Na+].[Na+].[Na+] [Example 7, Octakis per-2-O-(5-carboxy-4-thia-pentyl)-γ-cyclodextrin, Na salt] | 91% | (10) μmol · kg^−1 | 1.12 µmol/kg |  |  | 
6 | O=S(=O)([O-])CCSCCCO[C@H]1[C@H]2O[C@H]3[C@H](O)[C@@H](OCCCSCCS(=O)(=O)[O-])[C@@H](O[C@H]4[C@H](O)[C@@H](OCCCSCCS(=O)(=O)[O-])[C@@H](O[C@H]5[C@H](O)[C@@H](OCCCSCCS(=O)(=O)[O-])[C@@H](O[C@H]6[C@H](O)[C@@H](OCCCSCCS(=O)(=O)[O-])[C@@H](O[C@H]7[C@H](O)[C@@H](OCCCSCCS(=O)(=O)[O-])[C@@H](O[C@H]8[C@H](O)[C@@H](OCCCSCCS(=O)(=O)[O-])[C@@H](O[C@H]9[C@H](O)[C@@H](OCCCSCCS(=O)(=O)[O-])[C@@H](O[C@@H]([C@@H]1O)[C@@H](CO)O2)O[C@@H]9CO)O[C@@H]8CO)O[C@@H]7CO)O[C@@H]6CO)O[C@@H]5CO)O[C@@H]4CO)O[C@@H]3CO.[Na+].[Na+].[Na+].[Na+].[Na+].[Na+].[Na+].[Na+] [Example 8, Octakis per-2-O-(6-sulfo-4-thia-hexyl)-γ-cyclodextrin, Na salt] | 85% | (4.5) μmol · kg^−1 | 1.4 µmol/kg |  |  | 
7 | OCC(O)CSCCCO[C@H]1[C@H]2O[C@H]3[C@H](O)[C@@H](OCCCSCC(O)CO)[C@@H](O[C@H]4[C@H](O)[C@@H](OCCCSCC(O)CO)[C@@H](O[C@H]5[C@H](O)[C@@H](OCCCSCC(O)CO)[C@@H](O[C@H]6[C@H](O)[C@@H](OCCCSCC(O)CO)[C@@H](O[C@H]7[C@H](O)[C@@H](OCCCSCC(O)CO)[C@@H](O[C@H]8[C@H](O)[C@@H](OCCCSCC(O)CO)[C@@H](O[C@@H]([C@@H]1O)[C@@H](CO)O2)O[C@@H]8CO)O[C@@H]7CO)O[C@@H]6CO)O[C@@H]5CO)O[C@@H]4CO)O[C@@H]3CO (stereo partly drawn) [Example 9, Heptakis per-2-O-(6,7-dihydroxy-4-thia-heptyl)-β-cyclodextrin] | 93% | (6.4) μmol · kg^−1 | 1.10 µmol/kg |  |  | 
